The record followed here is patent US5607962A, “Substituted indole derivatives” (Bayer Aktiengesellschaft, priority 1995, dated 1997).

The test concerns smooth muscle cells. Description: Inhibition of the proliferation of smooth muscle cells (3H-thymidine incorporation). To be noted: Sus scrofa; smooth muscle cells from pig aortas; half-maximum inhibition of 3H-thymidine incorporation produced by 10% FCS. Format: cell-based, pigs. How it is done: Investigation of the inhibition of the proliferation of smooth muscle cells by the compounds according to the invention
To determine the antiproliferative action of the compounds, smooth muscle cells are used which have been obtained from the aortas of pigs by the media explant technique [R. Ross, J. Cell. Biol. 50, 172, 1971]. The cells are inoculated into suitable culture dishes, as a role 96-hole plates, and cultured at 37° C. for 2-3 days in medium 199 with 7.5% FCS and 7.5% NCS, 2 mM L-glutamine and 15 mM HEPES, pH 7.4 in 5% CO2. The cells are then synchronized by withdrawal of serum for 2-3 days and then stimulated to growth using serum or other factors. At the same time, test compounds are added. […] To determine the IC50 values, the active compound concentration is calculated at which sequential dilution of the active compound causes half-maximum inhibition of the thymidine incorporation produced by 10% FCS.
Background: Uptake of a labelled nucleoside into DNA is a usual measure of proliferation.

As usually defined, the IC50 is the concentration needed to halve the response being measured. A low value points to greater potency in that assay. As to `NC(=O)C(NC(=O)[C@@H]1CCCC[C@H]1c1ccc(Cc2c(-c3ccccc3)[nH]c3ccccc23)cc1)c1ccccc1` (stereo partly drawn) [Example 3, trans-2-[4-(2-Phenylindol-3-yl-methyl)phenyl]-cyclohexane-1-carbonyl(phenylglycinamido)amide], the 50% inhibitory concentration (IC50) is 20 pM.
